The values below come from patent US7365067B2, “Indanol derivative” (Sankyo Company, Limited, priority 2004, dated 2008).

This assay has as its target T1, NK2 receptor (Cavia porcellus, UniProt Q64077).
T1 construct: in normal guinea pigs (body weights: about 500 g, Hartley male guinea pigs); from tissue; host or cells: airways of live Hartley male guinea pigs (in vivo)
T1 sequence (Q64077 1-402): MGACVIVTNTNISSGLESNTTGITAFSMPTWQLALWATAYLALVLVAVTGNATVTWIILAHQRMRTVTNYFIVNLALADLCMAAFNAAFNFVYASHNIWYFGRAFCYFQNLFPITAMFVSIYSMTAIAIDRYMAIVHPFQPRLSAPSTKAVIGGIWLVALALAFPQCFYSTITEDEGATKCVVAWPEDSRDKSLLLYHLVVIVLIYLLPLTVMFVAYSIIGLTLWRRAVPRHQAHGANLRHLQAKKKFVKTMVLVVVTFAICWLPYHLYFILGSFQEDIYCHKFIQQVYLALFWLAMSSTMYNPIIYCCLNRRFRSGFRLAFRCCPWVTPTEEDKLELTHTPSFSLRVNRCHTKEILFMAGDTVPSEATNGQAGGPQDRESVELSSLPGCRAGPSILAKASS
The assay is described as follows: Inhibitory Action on Airway Contraction (In Vivo, Transtracheal Administration), induced by neurokinin A (NKA). On the set-up: species or system guinea pig. To be noted: Hartley male guinea pigs; 10 μg/kg transtracheal; NKA 4 μg/kg i.v. administered 16 hours after test substance; relative to 5% glucose control group. An excerpt:
Inhibitory Action on Airway Contraction (In Vivo, Transtracheal Administration)
The inhibitory action on airway contraction by the NK2 receptor agonist, neurokinin A (NKA) was investigated using airway internal pressure as an indicator in normal guinea pigs (body weights: about 500 g, Hartley male guinea pigs) using a variation of the method of Konzett-Roessler (Naunyn-Schmiedebergs Arch. Exp. Pathol. Pharmakol. 195, 71 (1940)).
A tracheal cannula and venous cannula were implanted in the guinea pigs under pentobarbital anesthesia (50 mg/mL of liquid, 0.40 to 0.50 mL/body, s.c.). In addition, an arterial cannula filled with heparin-containing physiological saline (100 U/mL) was implanted to monitor blood pressure and heart rate via an amplifier and instantaneous cardiograph. Next, after administering gallamine (20 mg/kg, i.v.) and interrupting spontaneous respiration, positive pressure ventilation (Ugo-Basile Biological Research Apparatus, Cat. No. 7025) was rapidly carried out at 10 mL/kg and 60 times/minute. The airway internal pressure during artificial respiration was detected with a pressure transducer (Nihon Koden, TP-200T or TP-400T) implanted in the lateral branch of the tracheal cannula, amplified (Nihon Koden, AP-601G) and recorded with a recorder (Nihon Koden, WT-645G or WT-685G). After the airway internal pressure, blood pressure and heart rate had stabilized, the standard tracheal contracting substance, methacholine was administered at 10 μg/kg (100 μg/mL, 0.10 mL/kg) to confirm airway response. In the case the prescribed contraction response was not obtained, methacholine was additionally administered at 12 μg/kg (120 μg/mL, 0.10 mL/kg) followed by confirmation of airway response. Five minutes after confirming airway response, NKA was administered intravenously through the intravenous cannula at 4 μg/kg to induce airway contraction followed by measuring airway internal pressure for the next 10 minutes.
The test substance was dissolved in 5% glucose, and a 0.5 mL/kg solution was administered into the airway using an intratracheal administration instrument (1A-1B, Penn-Century).
The surface value over which airway internal pressure had increased at 10 minutes after administration of NKA was taken to represent the strength of NKA-induced airway contraction, and the inhibition rate was calculated relative to a control group (5% glucose transtracheal dose group).
For `Cl.Cl.O=C(CN1CCOCC1)O[C@H]1Cc2ccccc2C12CCN(CC[C@@]1(c3ccc(Cl)c(Cl)c3)CN(C(=O)c3cc(C(F)(F)F)cc(C(F)(F)F)c3)CCO1)CC2` [Example 6, 1-(2-{(2R)-2-(3,4-Dichlorophenyl)-4-[3,5-bis(trifluoromethyl)benzoyl]morpholin-2-yl}ethyl)spiro((2S)-2-{[(morpholin-1-yl)acetyl]oxy})indane-1,4′-piperidine dihydrochloride], the “Inhibition Rate (%) of NKA-induced airway contraction” value (shortened to “Inhibition Rate (%)”) was determined as 97%. To `Cl.Cl.O=C(CO[C@H]1Cc2ccccc2C12CCN(CC[C@@]1(c3ccc(Cl)c(Cl)c3)CN(C(=O)c3cc(C(F)(F)F)cc(C(F)(F)F)c3)CCO1)CC2)N(CCO)CCO` [Example 31, 1-(2-{(2R)-2-(3,4-Dichlorophenyl)-4-[3,5-bis(trifluoromethyl)benzoyl]morpholin-2-yl}ethyl)spiro((2S)-2-{2-[bis(2-hydroxyethyl)amino]-2-oxoethoxy})indane-1,4′-piperidine dihydrochloride] belongs 82%; to `CN(CCO)C(=O)CO[C@H]1Cc2ccccc2C12CCN(CC[C@@]1(c3ccc(Cl)c(Cl)c3)CN(C(=O)c3cc(C(F)(F)F)cc(C(F)(F)F)c3)CCO1)CC2.Cl` [Example 32, 1-(2-{(2R)-2-(3,4-Dichlorophenyl)-4-[3,5-bis(trifluoromethyl)benzoyl]morpholin-2-yl}ethyl)spiro((2S)-2-{[N-(2-hydroxyethyl)-N-methylamino]-2-oxoethoxy})indane-1,4′-piperidine hydrochloride], 89%; to `Cl.O=C(CO[C@H]1Cc2ccccc2C12CCN(CC[C@@]1(c3ccc(Cl)c(Cl)c3)CN(C(=O)c3cc(C(F)(F)F)cc(C(F)(F)F)c3)CCO1)CC2)NCCO` [Example 33, 1-(2-{(2R)-2-(3,4-Dichlorophenyl)-4-[3,5-bis(trifluoromethyl)benzoyl]morpholin-2-yl}ethyl)spiro((2S)-2-{2-[N-(2-hydroxyethyl)amino]-2-oxoethoxy})indane-1,4′-piperidine hydrochloride], 93%. `CN(CCCCO)C(=O)CO[C@H]1Cc2ccccc2C12CCN(CC[C@@]1(c3ccc(Cl)c(Cl)c3)CN(C(=O)c3cc(C(F)(F)F)cc(C(F)(F)F)c3)CCO1)CC2.Cl` [Example 58, 2-[((2S)-1′-{2-[(2R)-4-[3,5-bis(Trifluoromethyl)benzoyl]-2-(3,4-dichlorophenyl)morpholin-2-yl]ethyl}-2,3-dihydrospiro[indene-1,4′-piperidin]-2-yl)oxy]-N-(4-hydroxybutyl)-N-methylacetamide hydrochloride]: the “Inhibition Rate (%)” value is given as 90%. Turning to `CN(CCCO)C(=O)CO[C@H]1Cc2ccccc2C12CCN(CC[C@@]1(c3ccc(Cl)c(Cl)c3)CN(C(=O)c3cc(C(F)(F)F)cc(C(F)(F)F)c3)CCO1)CC2.Cl` [Example 64, 2-[((2S)-1′-{2-[(2R)-4-[3,5-bis(Trifluoromethyl)benzoyl]-2-(3,4-dichlorophenyl)morpholin-2-yl]ethyl}-2,3-dihydrospiro[indene-1,4′-piperidin]-2-yl)oxy]-N-(3-hydroxypropyl)-N-methylacetamide hydrochloride], the “Inhibition Rate (%)” value turned out to be 87%. To `Cl.O=C(CO[C@H]1Cc2ccccc2C12CCN(CC[C@@]1(c3ccc(Cl)c(Cl)c3)CN(C(=O)c3cc(C(F)(F)F)cc(C(F)(F)F)c3)CCO1)CC2)N1CCC(CCO)CC1` [Example 69, 2-(1-{[((2S)-1′-{2-[(2R)-4-[3,5-bis(Trifluoromethyl)benzoyl]-2-(3,4-dichlorophenyl)morpholin-2-yl]ethyl}-2,3-dihydrospiro[indene-1,4′-piperidin]-2-yl)oxy]acetyl}piperidin-4-yl)ethanol hydrochloride] belongs 88%.
